Measurements reported in PubChem BioAssay (NCI).
Values joined by “and” are separate entries in the source; they are usually repeats but may differ in a detail not shown here. Equal values may be shown once.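 Step 1: Grow cells in 96-well plates. Step 2: Expose to compound for 48 hours at 5 concentrations. Step 3: Interpolate endpoints linearly; if unreached, use highest concentration. GI50: concentration for 50% inhibition of growth. Definition used: TGI = concentration required for complete inhibition of growth.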

Columns and labels:
Test in all cases: NCI tumour cell line growth inhibition, 48 h
HCT-15 colon = system: HCT-15 colon
SNB-19 CNS = system: SNB-19 CNS
HT29 colon = system: HT29 colon
K-562 leukemia = system: K-562 leukemia
SK-OV-3 ovarian = system: SK-OV-3 ovarian
OVCAR-8 ovarian = system: OVCAR-8 ovarian
EKVX NSCLC = system: EKVX NSCLC
HOP-62 NSCLC = system: HOP-62 NSCLC
UO-31 renal = system: UO-31 renal
SF-268 CNS = system: SF-268 CNS

Structure (SMILES)	GI50 (HCT-15 colon)	TGI (HCT-15 colon)	GI50 (SNB-19 CNS)	TGI (SNB-19 CNS)	GI50 (HT29 colon)	TGI (HT29 colon)	GI50 (K-562 leukemia)	TGI (K-562 leukemia)	GI50 (SK-OV-3 ovarian)	TGI (SK-OV-3 ovarian)	GI50 (OVCAR-8 ovarian) [µM]	TGI (OVCAR-8 ovarian) [µM]	GI50 (EKVX NSCLC)	TGI (EKVX NSCLC)	GI50 (HOP-62 NSCLC)	TGI (HOP-62 NSCLC)	GI50 (UO-31 renal)	TGI (UO-31 renal)	GI50 (SF-268 CNS)	TGI (SF-268 CNS)
[Cl-].[Dy+3].[O-]/N=C(\c1ccccc1)c1ccccn1.[O-]/N=C(\c1ccccc1)c1ccccn1.[O-]/N=C(\c1ccccc1)c1ccccn1	37 µM	> 100 µM	38 µM	> 100 µM	45.9 µM	> 100 µM	35.9 µM	> 100 µM	33.9 µM	> 100 µM	35.8	> 100	31.2 µM	> 100 µM	24.7 µM	> 100 µM	25.3 µM	65.3 µM	30.2 µM	98.9 µM
CC(C)(C)C1C=C(Sc2ccccc2)C(=O)O1 (centres undefined)	–	> 100 µM	–	> 100 µM	–	> 100 µM	–	> 100 µM	–	> 100 µM	–	> 100	–	> 100 µM	–	> 100 µM	–	92.1 µM	–	> 100 µM
COC(=O)/C(=N/NC(=O)C[N+](C)(C)C)C(C(=O)OC)C(=O)C(=O)Nc1ccc(F)cc1 (centres undefined)	–	> 100 µM	–	> 100 µM	–	> 100 µM	–	> 100 µM	–	> 100 µM	–	–	–	> 100 µM	–	> 100 µM	–	> 100 µM	–	> 100 µM
COC(=O)c1c/c(=N\NC(=O)CC(=O)Nc2ccccc2OC)c2ccccc2o1	–	> 100 µM	–	> 100 µM	–	> 100 µM	–	> 100 µM	–	> 100 µM	–	–	–	> 100 µM	–	> 100 µM	–	> 100 µM	–	> 100 µM
COc1ccc(-c2cc(=O)c3c(OC)c(OC)c(OC)cc3o2)cc1	–	> 100 µM	–	> 100 µM	–	99.5 µM	–	> 100 µM	–	88.2 µM	–	> 100	–	> 100 µM	–	59.8 µM	–	87.7 µM	–	> 100 µM
COC12C=C(C)C(CC1)CC2C(=O)O (centres undefined)	–	> 100 µM	–	> 100 µM	–	> 100 µM	–	> 100 µM	–	> 100 µM	–	> 100	–	> 100 µM	–	> 100 µM	–	> 100 µM	–	> 100 µM
CC[C@@H]1C(=O)N(C)c2cnc(Nc3ccc(C(=O)NC4CCN(C)CC4)cc3OC)nc2N1C1CCCC1	0.186 µM and 0.219 µM	> 4.57 µM and 6.38 µM	0.0058 µM and < 0.01 µM	> 10 µM and 20.3 µM	0.0036 µM and < 0.01 µM	> 4.71 µM and 10.3 µM	0.00367 µM and < 0.01 µM	> 10 µM and 3.54 µM	0.00746 µM and < 0.01 µM	0.593 µM and 0.128 µM	0.00414	> 10	0.0263 µM and 0.161 µM	> 10 µM and 21.5 µM	0.00533 µM and < 0.01 µM	> 10 µM and 6.35 µM	0.323 µM and 0.631 µM	> 3.97 µM and 15.1 µM	0.0156 µM and < 0.01 µM	> 10 µM and 7.8 µM
Cc1cccc(C)c1NC(=O)C(=O)C1C(=O)NC(=O)NC1=O	–	> 100 µM	–	> 100 µM	–	> 100 µM	–	> 100 µM	–	> 100 µM	–	> 100	–	> 100 µM	–	> 100 µM	–	> 100 µM	–	> 100 µM
CCC(C)c1c(Cl)nc(Cl)nc1Cl (centres undefined)	–	35.3 µM	–	30.7 µM	–	24.1 µM	–	> 100 µM	–	> 100 µM	–	38.3	–	48.8 µM	–	16 µM	–	33.4 µM	–	> 100 µM
Oc1c(CN2CCC(N3CCCCC3)CC2)cc(Cc2cc(CN3CCC(N4CCCCC4)CC3)c(O)c3ncccc23)c2cccnc12	0.797 µM	14.6 µM	2.65 µM	22.5 µM	1.07 µM	5.39 µM	0.617 µM	8.81 µM	1.21 µM	5.08 µM	1.83	12.3	0.57 µM	15.5 µM	0.425 µM	4.93 µM	1 µM	4.22 µM	0.537 µM	13.8 µM
Cn1c(=O)c2[nH]c(SCc3ccccn3)nc2n(C)c1=S	–	> 100 µM	–	> 100 µM	–	> 100 µM	–	> 100 µM	–	66.4 µM	–	> 100	–	> 100 µM	–	> 100 µM	–	> 100 µM	–	> 100 µM
CN1CCN(C)C12C=c1ccccc1=CC21CC1	–	73.6 µM	–	> 100 µM	–	32.7 µM	–	46.4 µM	–	> 100 µM	–	98	–	> 100 µM	–	> 100 µM	–	> 100 µM	–	> 77 µM
COc1ccc(/C(COc2c(-c3ccccc3)oc3ccccc3c2=O)=N\O)cc1	19.5 µM	> 50 µM	17.5 µM	> 50 µM	20.7 µM	> 50 µM	18.9 µM	> 50 µM	16.9 µM	> 50 µM	47.6	> 50	14.2 µM	> 50 µM	49.6 µM	> 50 µM	41.4 µM	> 50 µM	13.4 µM	41 µM
CN1CCN(C(=O)OCc2nc3c(N4CCOCC4)nc(Cl)nc3n2C)CC1	0.905 µM	2.79 µM	1.65 µM	3.62 µM	0.898 µM	3.17 µM	1.21 µM	15.7 µM	6.15 µM	18.8 µM	1.33	5.68	1.59 µM	2.98 µM	1.53 µM	4.92 µM	1.07 µM	2.29 µM	1.59 µM	3.72 µM
Cn1c2ccccc2c2c(-c3ccccc3)[n+]3ccncc3nc21	> 100 µM	> 100 µM	51.8 µM	> 100 µM	> 100 µM	> 100 µM	> 100 µM	> 100 µM	> 100 µM	> 100 µM	> 100	> 100	51.4 µM	> 100 µM	> 100 µM	> 100 µM	> 100 µM	> 100 µM	51.3 µM	> 100 µM
CC1(C)OC2[C@@H](CNC(=O)NC(=O)NC(=O)CI)O[C@@H](n3cnc4c(NC(=O)Nc5ccccc5)ncnc43)[C@H]2O1 (some centres undefined)	4.84 µM	11.9 µM	27.1 µM	> 50 µM	3.96 µM	12.2 µM	2.3 µM	10.5 µM	22.2 µM	> 50 µM	9.45	22.7	28.4 µM	> 50 µM	> 50 µM	> 50 µM	1.34 µM	4.27 µM	8.22 µM	17.1 µM
CC(=O)OCCN1c2ccccc2Sc2cnccc21	–	> 10 µM	–	> 10 µM	–	> 10 µM	–	> 10 µM	–	> 10 µM	–	> 10	–	> 10 µM	–	> 10 µM	–	> 10 µM	–	> 10 µM
COc1cc([N+](=O)[O-])cc2c3c(n(C)c12)[C@@]1(C)CCC2c4ccc(OCc5ccccc5)cc4CCC2C1C3 (some centres undefined)	53.5 µM	> 100 µM	46.5 µM	> 100 µM	17.7 µM	42.8 µM	62.5 µM	> 100 µM	54.5 µM	> 100 µM	> 100	> 100	68.5 µM	> 100 µM	43.7 µM	> 100 µM	> 100 µM	> 100 µM	> 100 µM	> 100 µM
Brc1cccc(C=NC23CC4CC(CC(C4)C2)C3)c1	–	> 100 µM	–	> 100 µM	–	> 100 µM	–	> 100 µM	–	> 100 µM	–	> 100	–	> 100 µM	–	> 100 µM	–	> 100 µM	–	> 100 µM
O=C(/C(Br)=C/c1ccccc1)c1ccccc1	1.02 µM	2.47 µM	13.1 µM	26.1 µM	–	–	2.23 µM	9.28 µM	16 µM	34.6 µM	2.75	10.2	10.6 µM	23.3 µM	2.29 µM	6.1 µM	1.36 µM	3.35 µM	4.56 µM	16.7 µM
CC1=NN(C(=O)Nc2ccccc2)C(=O)C2CCC(=O)N12 (centres undefined)	–	> 100 µM	–	> 100 µM	–	–	–	> 100 µM	–	> 100 µM	–	> 100	–	> 100 µM	–	> 100 µM	–	> 100 µM	–	> 100 µM
CCC[CH2][Sn]1([CH2]CCC)[O]Cc2nc(C)ccc2[O]1	10.1 µM	21.9 µM	3.95 µM	14.9 µM	12.8 µM	29.1 µM	3.17 µM	10.5 µM	15.8 µM	29.7 µM	9.1	21.7	4.36 µM	18.2 µM	10.1 µM	22.5 µM	13.3 µM	26.1 µM	–	–
C/C(CC(=O)Nc1cc(Cl)c(Cl)cc1Cl)=N\NC(N)=O	–	–	–	–	–	> 100 µM	–	> 100 µM	–	> 100 µM	–	> 100	–	> 100 µM	–	> 100 µM	–	> 100 µM	–	> 100 µM
CC(=O)CNC(=O)OC(C)(C)C	–	–	–	> 100 µM	–	> 100 µM	–	> 100 µM	–	> 100 µM	–	> 100	–	> 100 µM	–	> 100 µM	–	> 100 µM	–	> 100 µM
CSC(C1c2ccccc2N(c2ccc(C)cc2)C2=NC(=O)N(C)C(=O)C21Cl)S(=O)(=O)c1ccc(C)cc1 (centres undefined)	–	–	–	85.2 µM	–	57 µM	–	53.9 µM	–	87.6 µM	–	> 100	–	> 100 µM	–	43.3 µM	–	69.9 µM	–	62.5 µM
